Entries after “also recorded” stand apart in the source; their conditions may differ.
Legend:
β-gal-specific IgA = β-gal-specific IgA in lung and vaginal washings of intranasally immunized mice; assay type: in vivo, BALB/c (H-2d) mice; conditions: intranasal immunization with β-gal plus adjuvant
Experimental: (§1) 6-8-week-old female BALB/c (H-2d) mice (Harlan Winkelmann GmbH, Borchen, Germany) were used for the experiments. Groups of in each case 5 mice were administered 50 μg of β-galactosidase (β-gal) (Boehringer, Mannheim, Germany), either on its own or together with 0.5 μg of synthetic R-MALP-2, S-MALP-2 or BPP-Cys-PEG, as adjuvant, by the nasal route (25 μl) on days 1, 14 and 21. Serum samples were withdrawn on day 31 and stored at −20° C. until the β-gal-specific antibodies were determined. Nunc-Immuno MaxiSorp test plates containing 96 wells (Nunc, Roskilde, Denmark) were coated with 100 μl of β-gal (Boehringer, Mannheim, Germany), containing 5 μg/ml in 0.05 mol carbonate buffer (pH 8.2), per well. Serial double dilutions of the sera or washings in PBS containing 1% BSA and 0.05% Tween 20 were added (100 μl/well) and the plates were incubated at 37° C. for 2 hours. […]
Vaginal and lung washings were obtained by rinsing the organs with […] PBS which contained 50 mM EDTA, 0.1% BSA and 10 mM PMSF. […] In order to investigate the capacity of R-MALP-2, S-MALP-2 and BPP-Cys-PEG for stimulating effective humoral immune responses, the serum titers of β-gal-specific antibodies were determined in the inoculated mice.

[1] = system: mouse peritoneal macrophages; assay: Nitrogen monoxide release assay (macrophage activation test); assay type: cell-based, C3H/HeJ mice; conditions: FIG. 1
Excerpt: In principle, the activation of macrophages and monocytes can be measured by a large number of parameters, for example by means of the release of cytokines, chemokines or arachidonic acid metabolites in cultures of human monocytes or murine peritoneal macrophages. The test which is used here is based on the simultaneous stimulation of mouse peritoneal macrophages with interferon-γ and macrophage activator, e.g. BAP-Cys-PEG, so as to release nitrogen monoxide. (Reference: Muhlradt, P. F., and Frisch, M., 1994, “Purification and partial biochemical characterization of a Mycoplasma fermentans-derived substance that activates macrophages to release nitric oxide, tumor necrosis factor, and interleukin-6”, Infect. Immun. 62:3801-3807).
In brief, peritoneal macrophages from C3H/HeJ mice were used as the macrophage source. They were cultured in 96-well microtiter plates and stimulated simultaneously with rIFN-γ and a serial dilution of macrophage activator. Insofar as necessary, the macrophage activators were dissolved in 25 mM octylglucoside in the first dilution step and then diluted further with medium. After an incubating time of 45-48 hours, the nitrate was reduced with nitrate reductase and the starting substance nitrogen monoxide was determined, as the sum of nitrate and nitrite, using Griess' reagent. […]

spleen cells = assay: β-gal-specific T cell proliferation of spleen cells from immunized mice ([3H]-thymidine uptake); assay type: in vivo, BALB/c (H-2d) mice; conditions: spleen cells re-stimulated in vitro for 4 days with soluble β-gal; FIG. 6
Excerpt: FIG. 6: β-gal-specific T cell proliferation responses of spleen cells from immunized mice. The cells were re-stimulated in vitro over 4 days with different concentrations of soluble β-gal. The results are depicted as ratios between the values (means of triple determinations) from stimulated and unstimulated samples (stimulation index).
The spleens were removed and taken together for analyzing the cell immune responses. The cells were propagated in RPMI 1640, additionally containing 10% calf serum, 100 U of penicillin/ml, 15 μg of streptomycin/ml, 5×10^−5 M 2-mercaptoethanol and 1 mM L-glutamine (GIBCO BRL, Karlsruhe, Germany), and stored at 37° C. in a moist atmosphere containing 5% CO2. […] These cells were then harvested on filter paper (Filtermat A; Wallac, Freiburg, Germany) using a cell harvester (Inotech, Wohlen, Switzerland) and the quantity of [^3H] thymidine taken up into the DNA of proliferating cells was determined using a scintillation counter (Wallac 1450, Micro-Trilux). The results were recorded as the ratios between the values (mean values, determined in triplicate) of stimulated and unstimulated samples (stimulation index).

[2] = system: diabetic mice (C57BKLS/Bom-db); assay: Wound healing in diabetic mice; assay type: in vivo; conditions: 3×200 kU per animal on days 0, 2 and 5, in methylcellulose and 5% mouse serum; versus carrier control; FIG. 2
Excerpt: As in the case of diabetic patients, wound healing is also disturbed in diabetic mice and proceeds more slowly than in wild-type mice. The diabetic mouse is therefore an established animal model for wound healing.
An area of approx. 4×4 cm in size was shaved on the backs of 20 diabetic mice ([…] C57BKLS/Bom-db) and this area was depilated with Veet two days later, after which the cream was carefully removed. After a further two days, the depilated backs of the mice were disinfected with Braunol. After anaesthesia had been initiated with isoflurane/air, an additional local anaesthesia was performed by means of the i.c. injection of 2% xylocaine directly into the site envisaged for the excision, and the skin was defatted with trichloroethylene. After that, scissors were used to cut out a circular skin wound of 1.3 cm in diameter in each of the mice. The wounds were closed with a transparent plaster (Hydrofilm, F. Hartmann) and dressing adhesive. An additional, larger plaster, having an aperture corresponding to the wound, making possible continued observation of the wound, was adhered on top of the first plaster.
3×200 kUnits of BPP-Cys-PEG, in methylcellulose and 5% mouse serum (as carrier), were administered, per animal, through the transparent plaster on days 0, 2 and 5.
Control mice were only given the carrier mixture. […]

[3] = system: β-galactosidase-specific antibodies; assay: Serum β-gal-specific IgG (ELISA) after intranasal immunization with β-gal plus adjuvant; assay type: in vivo, BALB/c (H-2d) mice
Experimental: FIG. 3: Humoral responses which are stimulated after inoculating with MALP-2 derivatives and BPP-Cys-PEG, as mucosal adjuvants, at a dose of 0.05 μg per animal per immunization. The mice were immunized intranasally, on days 0, 7 and 14, with β-galactosidase (50 μg/dose) mixed with the above derivatives. On day 31 after the first immunization, serum samples were withdrawn and the concentrations of the β-galactosidase-specific antibodies were determined by means of ELISA. The results are depicted as end point titers.
as §1

bispalmitoyloxy-propylcysteine-PEG [BPP-Cys-PEG]
β-gal-specific IgA in lung washings (β-gal-specific IgA; FIG. 4): significant increase in antigen-specific IgA antibodies | β-gal-specific IgA in vaginal washings (β-gal-specific IgA; FIG. 5): significant concentrations of β-gal-specific IgA | concentration achieving the same degree of macrophage activation, relative to TPP-Cys-PEG ([1]; comparison with TPP-Cys-PEG (PAM3-Cys-PEG)): approx. forty times lower | potential for activating macrophages (nitrogen monoxide production), compared with PAM3-Cys-PEG ([1]; peritoneal macrophages co-stimulated with rIFN-γ, 45-48 hours): markedly higher potential for activating macrophages | β-gal-specific T cell proliferation response (stimulation index) (spleen cells): effective proliferation response; also recorded: strongest T cell proliferation response | wound healing [2]: accelerated the wound healing significantly | antigen-specific (β-gal) serum IgG titers ([3]; intranasal, 50 μg β-gal with 0.5 μg adjuvant, serum on day 31, FIG. 3): rise more rapidly than those obtained using R-MALP-2 | effectiveness as a mucosal adjuvant compared with R-MALP-2 (overall conclusion) ([3]; summary of humoral and cellular responses, systemic and mucosal): at least as effective as, or even more effective than, R-MALP-2
